Measured values as given in ChEMBL document CHEMBL1165932, “Inhibition of Mycobacterium tuberculosis tyrosine phosphatase PtpA by synthetic chalcones: kinetics, molecular modeling, toxicity and effect on growth” (Bioorg Med Chem, 2010).

What was measured:
[1] = test system: Mycobacterium tuberculosis; test: Antibacterial activity against Mycobacterium bovis BCG infected in human THP1 cells assessed as viral infection at 10 uM after 24 hrs relative to control; format: functional, variant bovis BCG, THP-1
[2] = test system: Mycobacterium tuberculosis; test: Antibacterial activity against Mycobacterium bovis BCG infected in human THP1 cells assessed as viral infection at 20 uM after 48 hrs relative to control; format: functional, variant bovis BCG, THP-1

Row | SMILES | Activity [1] [%] | Activity [2] [%]
1 | COc1ccc(OC)c(C(=O)/C=C/c2ccc3ccccc3c2)c1 | 117.7 | 234.9
2 | COc1cc(C(=O)/C=C/c2ccc3ccccc3c2)ccc1O | 72.9 | 8.5
3 | COc1ccc(C(=O)/C=C/c2ccc3ccccc3c2)cc1OC | 63.8 | 32.9
4 | O=C(/C=C/c1cccc2ccccc12)c1ccccc1O | 180.8 | 71.3
5 | COc1ccc(OC)c(C(=O)/C=C/c2cccc3ccccc23)c1 | 108.6 | 46.3
